Measured values published in patent US20090010993A1, “Composition comprising polyphenol” (Conopco, Inc. d/b/a Unilever, priority 2007, published 2009).

Tested on: 2nd order mesenteric resistance arteries of SHR
Experiment: Reactivity of isolated arteries: dilator effect during contraction induced by 40 mmol/L K+
Design: species or system Spontaneously Hypertensive Rats (SHR)
Experimental: Segments of 2nd order mesenteric artery side branches were isolated from 14 weeks old male Spontaneously Hypertensive Rats (SHR). Two stainless-steel wires (diameter 40 μm) were inserted in the lumen of the arterial segments, which were then mounted in organ chambers between an isometric force transducer and a displacement device (Danish Myotechnology by J. P. Trading, Denmark). The organ chambers were filled with Krebs-Ringer bicarbonate solution which was maintained at 37° C. and continuously aerated with 95% O2 and 5% CO2. Before the actual experiments started, arterial segments were stretched to their individual optimal lumen diameter for mechanical performance, i.e. the diameter at which maximal contractile responses to noradrenaline (10 μmol/L) were obtained. In each experiment four second order mesenteric resistance arterial segments from one animal were mounted in individual organ chambers and studied in parallel. At the start of the experiments, all four arterial preparations were incubated during 20 min with capsaicin (1 μmol/L) to persistently desensitize sensory-motor nerves and to obtain a stable and considerable contractile response to potassium (K^+, 40 mmol/L). During all the experiments superoxide dismutase (SOD, 5 U/ml) was present, to preserve stability of the metabolites. We tested the effects of the 35 different phenolic compounds using a Plackett-Burman screening design. The experiment consisted of 5 separate saturated 8 run Plackett-burman designs. […] In this way, the effects of different exposure times to the mixtures (7, 30 and 90 min) on K+-induced contraction, could be evaluated. […] Effects of increasing concentrations of the solvent and of the mixes (0.1 to 100 umol/L) during contractile responses to 40 mmol/L K+, were calculated as % change of the level of pre-contraction. […] Responses to acetylcholine and Na-nitroprusside were analysed in terms of sensitivity (pD2=−log (M) EC50) and maximal effect (Emax) by least square sigmoidal curve fitting of individual concentration-response curves (Graphpad Prism 1.00, San Diego, Calif., USA). […]

EC50 (Rattus norvegicus, isolated mesenteric resistance arteries of SHR, pre-contracted with 40 mmol/L K+, deduced by comparing mixtures (Plackett-Burman design), corrected for solvent, read-out: EC50 of dilation of the arteries): 3000 nM
SMILES: O=c1c(O)c(-c2ccc(O)cc2)oc2cc(O)cc(O)c12 [kaempferol, 3,5,7-trihydroxy-2-(4-hydroxyphenyl)-4H-1-benzopyran-4-one]
influence on the dilation of the arteries (at a low concentration, isolated SHR mesenteric arteries, comparison of different mixtures): significant influence on the dilation of the arteries | concentration at which the maximum dilatation was obtained (isolated mesenteric resistance arteries of SHR, pre-contracted with 40 mmol/L K+, range tested 0.1-100 umol/L): 100 µM
